Consider 3 sequences from publication PMC9032346, “Identification of functionally important domains of human cytomegalovirus gO that act after trimer binding to receptors” (PLoS Pathogens, 2022).

One experiment has as its system rabbits. As to the kind of experiment: Immunization of rabbits with ova-conjugated peptides. It is filed as in vivo, New Zealand White rabbit. Conditions: peptides conjugated onto ovalbumin, sera after 3 rounds of immunization. The source says:
An overlapping peptide library spanning the entire length HCMV gO polypeptide from strain TR was obtained from Genscript Biotech, Piscataway, NJ. The peptides consisted of 20 amino acids in length with 7 amino acid overlap and a biotin moiety conjugated to the C-terminus. A panel of 8 a.a. peptides overlapping by 7 a.a. and a biotin moiety conjugated to the C-terminus that were derived from the protein sequences: 248-[…]-267 or 326-[…]-345 (S2 Table) were also obtained from Genscript Biotech. Peptides derived from the gO polypeptide sequence 235-[…]-267 (peptide 19/20 from overlapping library) and 326-[…]-345 (peptide 26 from overlapping library) were synthesized conjugated onto ovalbumin (ova). These ova-peptides were used to produce New Zealand White rabbit polyclonal sera by priming rabbits with ova-peptides in Freund’s adjuvant then boosting the rabbits with ova-peptides in TiterMax Gold adjuvant (Sigma, St. Louis, MO). Rabbit antibodies specific for peptide 20, 26 and ovalbumin were purified using peptides ova-20 and ova-26 or ova (without peptides) by coupling these proteins to AminoLink (Thermo Scientific).

In experiment [1] the test system is neutralizing Abs from human serum. As to the kind of experiment: Depletion of neutralizing Abs from human sera, read out by HCMV neutralization on ARPE-19. It is filed as cell-based. Here is the method:
Fig 7 gO peptides 20 and 26 deplete neutralizing Abs from human serum. (A) Pooled HCMV seropositive serum was diluted to (NT100) titers then incubated with either no protein, 1μg of soluble trimer, or gO peptides (with biotin): 20, 26, 32 or 33 (each at 0.5 mM) for 1 h at 37°C. […] The trimer was removed using nickel-agarose and peptides removed using streptavidin-agarose. The remaining Abs were tested in neutralization assays involving HCMV (BADrUL131) and ARPE-19 epithelial cells. The relative infectivity of HCMV after incubation with these sera was determined by counting GFP+ (infected) cells after 24 h of infection and compared to the numbers of infected cells following incubation of HCMV with similarly diluted sera from HCMV seronegative donors (sero-neg) Data was collected from three separate wells for each condition. (B and C) Two panels of 8 a.a. peptides with 7 a.a. overlap were derived from peptide 20 (B) or peptide 26 (C). These peptides were tested in depletion assays as in panel A. The relative infectivity of HCMV (BADrUL131) on ARPE-19 epithelial cells was determined and normalized to the level of HCMV infectivity with depletions performed with soluble trimer. Data was collected from a randomly selected field of the same surface area from each well.
These sera were then tested in HCMV neutralization assays as described above.

Experiment [2] relates to Abs present in HCMV seropositive human serum. As to the kind of experiment: ELISA of biotinylated gO peptides with pooled human transplant sera. It is filed as binding. As to conditions: biotin peptides 0.5 mM on streptavidin plates, pool of 5 sera diluted to NT100. How it is done:
Fig 5 gO peptides recognized by Abs present in HCMV seropositive human serum. The panel of gO peptides with C-terminal biotin tags were incubated in the wells of streptavidin-coated ELISA plates. The wells were washed and then incubated with a pool of 5 different human sera from transplant patients that had been diluted to the NT100 titers. The plates were washed and incubated with goat-anti human-IgG-HRP for 1 h at room temperature, washed, and incubated with Turbo-TMB substrate. Control conditions included no peptide plus human sera (red bar) and wells coated with soluble trimer (instead of peptides) and human sera (green bar). The absorbance values are indicated on the y-axis and the numbers of the individual gO peptides are indicated on the x-axis.
For cell-based ELISA assays, ARPE-19 epithelial or fibroblast cells in 96-well plates were fixed with 4% paraformaldehyde, washed with PBS supplemented with 0.1M glycine pH.7.2, then washed with PBS plus 2% BSA and incubated with soluble trimers or gH/gL complexes at 10 μg/ml (or 20 μg/ml in the case of gO-417) in PBS with 2% BSA at room temperature for 1 h. […] The colorometric reaction was stopped by adding 100 μl of 1M sulfuric acid to the wells and then the substrate development was read in a Molecular Dynamics precision plate reader at a wavelength of 450 nm.
In general terms: An ELISA detects its analyte on a solid surface through an enzyme-linked reagent.

Consider “FRVPKYINGTKLKNTMRKLKRKQAPVKEQSEKK [Peptide 19/20, peptide containing all of peptides 19 and 20 (a.a. 235-267), conjugated onto ovalbumin]”, for which the “induction of gO-specific NAbs in rabbits” value with rabbits is listed as “able to induce gO-specific NAbs”.
As to “LRDLATWVYTTLRYRQNPFC [Peptide 26, gO (TR) a.a; 326-345, C-terminal biotin; also ova-conjugated for immunization]”, in experiment [1] (pooled human transplant sera at NT100, 1 μg soluble trimer or 0.5 mM biotin peptide, 1 h 37°C, relative to seronegative sera, three wells), the “HCMV infectivity with sera after depletion” value is listed as 45%. For the same sequence, the “induction of gO-specific NAbs in rabbits” value in the experiment with rabbits is listed as “able to induce gO-specific NAbs”. In addition, the “binding of IgG from human transplant sera” value in experiment [2] is listed as “binding higher quantities of IgG compared with other peptides”.
As for “TTTPYSPYTTSTALNVTTNA [Peptide 22, gO (TR) a.a; 274-293, C-terminal biotin; negative control in depletion]”, the “depletion of NAbs from human sera” value in experiment [1] (pooled sera at NT100, 0.5 mM biotin peptide) is “retained complete neutralizing capacity”. Further, the “binding of IgG from human transplant sera” value in experiment [2] is recorded as “did not bind substantial IgG”.
